Laboratory results: the Deep4Chem optical property database
Values joined by “and” are separate entries in the source; they are usually repeats but may differ in a detail not shown here. Equal values may be shown once. Blank lines part the entries; values can stand above or below the compound they belong to.

Test: solvent given as SMILES

SMILES: CC(C)c1cc(C(C)C)c(B2c3ccccc3Oc3cc(N4c5ccccc5C5(c6ccccc6-c6ccccc65)c5ccccc54)ccc32)c(C(C)C)c1
fluorescence lifetime (in Cc1ccccc1): 28 ns

SMILES: CN(C)c1ccc(-c2c(/C=C3/C=Cc4ccccc4N3Cc3ccccc3)c(=O)c2=O)cc1
fluorescence lifetime (in C1CCCCC1): 2.19 ns
fluorescence lifetime (in Cc1ccccc1): 2.13 ns
fluorescence lifetime (in ClCCl): 0.13 ns

SMILES: c1ccc2c(c1)Oc1ccccc1N2c1ccc(-c2nnc(-c3ccc(N4c5ccccc5Oc5ccccc54)cc3)o2)cc1
fluorescence lifetime (in Cc1ccccc1): 21.2 ns
fluorescence lifetime (in O=P(c1ccccc1)(c1ccccc1)c1ccccc1Oc1ccccc1P(=O)(c1ccccc1)c1ccccc1): 11.2 ns

fluorescence lifetime (in ClCCl): 1.6 ns
SMILES: COCCOCCOCCOCC(COCCOCCOCCOC)Oc1cc(/C=C/c2ccc(/C=C(\C#N)c3ccc(C(F)(F)F)cc3)cc2)c(OC(COCCOCCOCCOC)COCCOCCOCCOC)cc1/C=C/c1ccc(/C=C(\C#N)c2ccc(C(F)(F)F)cc2)cc1

fluorescence lifetime (in C1CCCCC1): 4.3 ns
fluorescence lifetime (in C1CCOC1): 5.3 ns
fluorescence lifetime (in C1COCCO1): 0.8 ns
fluorescence lifetime (in CC#N): 3.9 ns
fluorescence lifetime (in CCO): 5.1 ns
fluorescence lifetime (in CN(C)C=O): 6.5 ns
fluorescence lifetime (in CO): 4 ns
fluorescence lifetime (in COCCOC): 4.8 ns
fluorescence lifetime (in CS(C)=O): 8.2 ns
fluorescence lifetime (in O): 5.7 ns
fluorescence lifetime (in OCC(O)CO): 8.9 ns
fluorescence lifetime (in OCCO): 7 ns
SMILES: CN(C)c1c2ccccc2cc2ccccc12

fluorescence lifetime (in ClCCl): 0.2 ns
SMILES: CC1=C(c2ccc(N(C)C)cc2)C(C)=[N+]2C1=C(c1c(-c3ccccn3)nc3ccccn13)c1c(C)c(-c3ccc(N(C)C)cc3)c(C)n1[B-]2(F)F

SMILES: N#Cc1ccc(N)cc1
fluorescence lifetime (in C1CCCCC1): 5.6 ns
fluorescence lifetime (in CC#N): 2.6 ns
fluorescence lifetime (in CCCCCC): 3.2 ns
fluorescence lifetime (in CCO): 0.68 ns
fluorescence lifetime (in O): 0.067 ns
fluorescence lifetime (in OCC(F)(F)F): 0.13 ns

fluorescence lifetime (in ClCCl): 4.32 ns
SMILES: COc1cc(OC)cc(C2=[O+][B-](F)(F)OC(c3ccc4cc(OC)ccc4c3)=C2)c1

fluorescence lifetime (in CCCO): 0.175 ns
SMILES: CCOC(=O)c1ccc2c(c1)[se]c1c3ccc(C(=O)OCC)cc3n(C)c21

fluorescence lifetime (in C1CCCCC1): 0.327 ns
fluorescence lifetime (in CC#N): 0.142 ns
fluorescence lifetime (in CCO): 0.196 ns
fluorescence lifetime (in CCOC(C)=O): 0.207 ns
fluorescence lifetime (in CO): 0.179 ns
fluorescence lifetime (in OCC(F)(F)F): 0.185 ns
SMILES: Cc1ccc(C2=C3C=C(I)C=[N+]3[B-](F)(F)n3c2cc(I)c3I)cc1

fluorescence lifetime (in ClC(Cl)Cl): 0.63 ns
SMILES: CCc1ccc(-n2c3ccccc3c3cc4c(cc32)c2ccccc2n4-c2ccc(CC)s2)s1

fluorescence lifetime (in CN(C)C=O): 4.1 ns
SMILES: CCCCCCCCCCCCN1C(=O)c2ccc3c4ccc5c6c(ccc(c7ccc(c2c37)C1=O)c64)C(=O)N(CCCCCCCCCCCC)C5=O

SMILES: COC(=O)/C(C#N)=c1\s/c(=c2/s/c(=C(/C#N)C(=O)OC)c3cc(-c4ccccc4)sc23)c2sc(-c3ccccc3)cc12
fluorescence lifetime (in Cc1ccccc1): 2.82 ns

fluorescence lifetime (in ClCCl): 0.921 ns
SMILES: COc1ccc(/C2=C3N=C(C(c4ccccc4)=C/3c3ccccc3)/C(c3ccc(OC)cc3)=c3\[nH]/c(c(-c4ccccc4)c3-c3ccccc3)=C(/c3ccc(OC)cc3)C3=N/C(=C(/c4ccc(OC)cc4)c4[nH]c2c(-c2ccccc2)c4-c2ccccc2)C(c2ccccc2)=C3c2ccccc2)cc1

SMILES: N#Cc1cc(-n2c3ccccc3c3ccccc32)c(C#N)cc1-n1c2ccccc2c2ccccc21
fluorescence lifetime (in c1ccc2c(c1)c1ccccc1n2P1(n2c3ccccc3c3ccccc32)=NP(n2c3ccccc3c3ccccc32)(n2c3ccccc3c3ccccc32)=NP(n2c3ccccc3c3ccccc32)(n2c3ccccc3c3ccccc32)=N1): 34 ns

fluorescence lifetime (in c1ccccc1): 4.8 ns
SMILES: O=c1oc2ccc3ccc(O)cc3c2nc1-c1ccccc1

fluorescence lifetime (in CC#N): 20 ns
SMILES: COC(=O)CC1(C(=O)O)Oc2c(c(C(C)=O)c3c(c2C(C)=O)OCO3)O1

fluorescence lifetime (in CC#N): 4.18 ns
fluorescence lifetime (in CCO): 3.89 ns
fluorescence lifetime (in CN(C)C=O): 3.87 ns
fluorescence lifetime (in O): 4.07 ns
SMILES: CCN(CC)c1ccc2cc3ccc(=[N+](CC)CC)cc-3oc2c1

fluorescence lifetime (in ClCCl): 4.68 ns
SMILES: N#CC(C#N)=Cc1ccc2c(c1)c1ccccc1n2-c1cc2ccccc2c2ccccc12

SMILES: COc1nc(Nc2ccc3c4c(cccc24)C(=O)c2ccccc2-3)nc(OC)n1
fluorescence lifetime (in CC#N): 9.2 ns
fluorescence lifetime (in CC(C)=O): 8.5 ns
fluorescence lifetime (in CC(C)O): 7.7 ns
fluorescence lifetime (in CCCCOCCCC): 3.7 ns
fluorescence lifetime (in CCOC(C)=O): 7.3 ns
fluorescence lifetime (in CCOCC): 4.9 ns
fluorescence lifetime (in CO): 7.4 ns
fluorescence lifetime (in Cc1ccccc1): 5.6 ns
fluorescence lifetime (in Clc1ccccc1): 7.4 ns
fluorescence lifetime (in N#Cc1ccccc1): 7 ns
fluorescence lifetime (in O=C1CCCCC1): 7.4 ns

SMILES: Nc1ccccc1C(=O)O
fluorescence lifetime (in C1CCCCC1): 5.7 ns
fluorescence lifetime (in CC#N): 6.9 ns
fluorescence lifetime (in CCO): 7.6 ns
fluorescence lifetime (in CS(C)=O): 8.7 ns
fluorescence lifetime (in O): 8.6 ns and 8.7 ns
fluorescence lifetime (in OCC(F)(F)F): 5.4 ns
fluorescence lifetime (in c1ccccc1): 6.3 ns

SMILES: CCCCCCC(CCCCCC)N1C(=O)c2cccc3c(-c4ccc(OC)c5ccccc45)ccc(c23)C1=O
fluorescence lifetime (in CCCCCC): 1.7 ns
fluorescence lifetime (in CCCCCCCCCCCCCC): 1.83 ns
fluorescence lifetime (in CCCCCCCCCCCO): 4.85 ns
fluorescence lifetime (in CCCCO): 1.8 ns
fluorescence lifetime (in CN(C)C=O): 3.85 ns
fluorescence lifetime (in Cc1ccccc1): 1.53 ns
fluorescence lifetime (in ClC(Cl)Cl): 4.07 ns

SMILES: CN(C)c1ccc(/C=C/c2ccc(-c3ccc(/C=C/c4ccc(N(C)C)cc4)s3)s2)cc1
fluorescence lifetime (in C1CCOC1): 1.08 ns
fluorescence lifetime (in CC#N): 1.12 ns
fluorescence lifetime (in CC(C)=O): 1.11 ns
fluorescence lifetime (in CN(C)C=O): 1.15 ns
fluorescence lifetime (in Cc1ccccc1): 1.03 ns

SMILES: O=c1cccc2n1C[C@@H]1CNC[C@H]2C1
fluorescence lifetime (in CC#N): 0.289 ns

fluorescence lifetime (in C1CCOC1): 5.8 ns
SMILES: C[Si](C)(C)c1ccc(-c2ccc(-c3ccc(-c4ccc(-c5ccc([Si](C)(C)C)s5)s4)c4nsnc34)s2)s1

fluorescence lifetime (in ClCCl): 3.34 ns
SMILES: CCN(CC)c1ccc2c(c1)oc(=O)c1cnc3c(c(C)nn3-c3ccccc3)c12

fluorescence lifetime (in N#Cc1ccc2c(c1)c1ccccc1n2-c1cccc(-n2c3ccccc3c3ccccc32)c1): 6.53 ns
SMILES: CC1(C)c2ccccc2N(c2ccc(-c3cccc(C#N)c3)cc2)c2ccccc21

SMILES: Cc1cc(C)c2c(c1)c1cc(C)cc(C)c1n2-c1ccc2c(c1)Oc1cc3c(cc1B2c1c(C(C)C)cc(C(C)C)cc1C(C)C)B(c1c(C(C)C)cc(C(C)C)cc1C(C)C)c1ccccc1O3
fluorescence lifetime (in Cc1ccccc1): 21 ns
fluorescence lifetime (in O=P(c1ccccc1)(c1ccccc1)c1ccc2oc3ccc(P(=O)(c4ccccc4)c4ccccc4)cc3c2c1): 25 ns

SMILES: CCCCC(CC)CN1C(=O)C2=C(c3ccc(-c4ccc(C5=C6C(C)=CC(C)=[N+]6[B-](F)(F)n6c(C)cc(C)c65)cc4)s3)N(CC(CC)CCCC)C(=O)C2=C1c1ccc(-c2ccc(C3=C4C(C)=CC(C)=[N+]4[B-](F)(F)n4c(C)cc(C)c43)cc2)s1 (centres undefined)
fluorescence lifetime (in Cc1ccccc1): 3.36 ns

fluorescence lifetime (in CC#N): 0.85 ns
fluorescence lifetime (in CO): 0.54 ns
fluorescence lifetime (in O): 1.12 ns
SMILES: CN(C)CCCN1c2ccccc2CCc2ccccc21

fluorescence lifetime (in CCO): 0.47 ns
fluorescence lifetime (in ClC(Cl)Cl): 2.87 ns
fluorescence lifetime (in O): 0.16 ns
SMILES: CC[N+](CC)=c1ccc2c(-c3ccccc3C(=O)O)c3c(=O)oc4c5c6c(cc4c3oc-2c1)CCCN6CCC5

fluorescence lifetime (in ClCCl): 1.27 ns
SMILES: CCCCCCCCOc1cc(/C=C/c2cc(OCCCCCCCC)c(/C=C/c3cc(OCCCCCCCC)c(/C=C/c4ccncc4)cc3OCCCCCCCC)cc2OCCCCCCCC)c(OCCCCCCCC)cc1/C=C/c1ccncc1

fluorescence lifetime (in CC1CCCCC1): 0.3 ns
fluorescence lifetime (in CC#N): 1.44 ns
fluorescence lifetime (in CO): 1.33 ns
SMILES: COC(=O)C(NC(=O)OC(C)(C)C)c1ccc2oc(-c3ccc(O)cc3O)nc2c1 (centres undefined)

fluorescence lifetime (in ClC(Cl)Cl): 15.4 ns
SMILES: CCCCCCN1C(=O)c2cccc3cc(/N=C\c4ccc(N(c5ccccc5)c5ccccc5)cc4)cc(c23)C1=O

SMILES: O=S(=O)(c1ccc(-c2ccc3c(c2)c2ccccc2n3-c2ccccc2)cc1)c1ccc(-c2ccc3c(c2)c2ccccc2n3-c2ccccc2)cc1
fluorescence lifetime (in Cc1ccccc1): 1.51 ns

SMILES: F[B-]1(F)OC(c2ccc(C(F)(F)F)cc2)=Cc2cc(Cl)nc[n+]21
fluorescence lifetime (in C1CCOC1): 0.13 ns
fluorescence lifetime (in Cc1ccccc1): 0.21 ns

SMILES: CCN1C(=O)C(C2C(=O)c3c4ccccc4cc4cc5ccccc5c2c34)SC1=S (centres undefined)
fluorescence lifetime (in C1CCOC1): 11.8 ns
fluorescence lifetime (in CC#N): 7.8 ns
fluorescence lifetime (in CCCCCC): 12.8 ns
fluorescence lifetime (in Cc1ccccc1): 13.2 ns
fluorescence lifetime (in ClCCl): 10.4 ns

fluorescence lifetime (in CCCCCC): 5.44 ns
fluorescence lifetime (in CCCCCCCCO): 5.07 ns
fluorescence lifetime (in CCOC(C)=O): 5.32 ns
fluorescence lifetime (in CN(C)C=O): 4.92 ns
SMILES: CC1=CC(C)=[N+]2C1=Cc1c3ccccc3c(C#Cc3ccc(F)cc3)n1[B-]2(F)F

fluorescence lifetime (in C1CCCCC1): 4.9 ns
fluorescence lifetime (in CCOC(C)=O): 4.9 ns
fluorescence lifetime (in CO): 5.1 ns
SMILES: c1ccc2c(-n3c4ccccc4c4ccccc43)cccc2c1

fluorescence lifetime (in ClCCl): 0.4 ns
SMILES: COc1cccc2cc(C#N)c(=N)oc12

SMILES: CCCCCCCCC1(CCCCCCCC)c2ccccc2-c2ccc(-c3nnc(-c4ccc(-n5c6ccc(C(C)(C)C)cc6c6cc(C(C)(C)C)ccc65)cc4)o3)cc21
fluorescence lifetime (in Cc1ccccc1): 1.7 ns

fluorescence lifetime (in C1CCCCC1): 0.17 ns
SMILES: C(=C\c1nc2ccccc2s1)/c1ccccc1

SMILES: CC(C)c1cc(C(C)C)c(B2c3ccccc3Oc3cc(N4c5ccccc5C(C)(C)c5ccccc54)ccc32)c(C(C)C)c1
fluorescence lifetime (in Cc1ccccc1): 33 ns

fluorescence lifetime (in CN(C)C=O): 3.1 ns
SMILES: Nc1ccc(N2C(=O)c3ccc4c5ccc6c7c(ccc(c8ccc(c3c48)C2=O)c75)C(=O)N(c2ccc(O)cc2)C6=O)cc1

fluorescence lifetime (in ClCCl): 7.1 ns
SMILES: F[B-]1(F)n2c(c3cccc4cccc2c43)=Nc2cccc[n+]21

fluorescence lifetime (in C1COCCO1): 0.5 ns
fluorescence lifetime (in CC#N): 0.7 ns
fluorescence lifetime (in CCO): 1.35 ns
fluorescence lifetime (in CO): 1.6 ns
fluorescence lifetime (in ClCCCl): 0.74 ns
fluorescence lifetime (in O): 7.3 ns
SMILES: Cc1cccc2nc3c(=O)[nH]c(=O)[nH]c3nc12

SMILES: CC1(C)c2ccccc2N(c2ccc(C(=O)c3cc(C(=O)c4ccc(N5c6ccccc6C(C)(C)c6ccccc65)cc4)cc(C(=O)c4ccc(N5c6ccccc6C(C)(C)c6ccccc65)cc4)c3)cc2)c2ccccc21
fluorescence lifetime (in Cc1ccccc1): 16.7 ns
fluorescence lifetime (in c1ccc2c(c1)c1ccccc1n2-c1ccc(-c2ccc(-n3c4ccccc4c4ccccc43)cc2)cc1): 25.8 ns

fluorescence lifetime (in C1CCOC1): 7.02 ns
fluorescence lifetime (in ClC(Cl)Cl): 8.86 ns
fluorescence lifetime (in ClCCl): 7.02 ns
SMILES: O=C1NC(=O)c2ccc(N3CCCCC3)c3cccc1c23

SMILES: COc1ccc(C(=O)NN2C3=C(CC4=C2CCCC4=O)C(=O)CCC3)cc1
fluorescence lifetime (in CC#N): 6.2 ns
fluorescence lifetime (in CC(C)=O): 5.4 ns
fluorescence lifetime (in CCCCCO): 6.1 ns
fluorescence lifetime (in CO): 4.7 ns
fluorescence lifetime (in ClC(Cl)Cl): 6.2 ns
fluorescence lifetime (in ClCCl): 8.3 ns

fluorescence lifetime (in CCCCCCC): 108 ns
SMILES: CC(=O)Nc1cc2ccc3cccc4ccc(c1)c2c34

SMILES: COc1ccc(N(c2ccccc2)c2cc3ccc4cc(N(c5ccccc5)c5ccc(OC)cc5)cc5ccc(c2)c3c45)cc1
fluorescence lifetime (in Cc1ccccc1): 18 ns
